From paper PMC12203862, “BroadAMP-GPT: AI-Driven generation of broad-spectrum antimicrobial peptides for combating multidrug-resistant ESKAPE pathogens” (Gut Microbes, 2025)
≈ marks a conversion by molar mass, not a printed value. Read-outs that look alike come from different tables or passages of the source.

Tests used:
S. enteritis S1 = test: organism not typed; type: cell-based; settings: Table 1, S. enteritis S1, broth microdilution
Experimental: (§1) Bacterial strains and growth conditions: All Gram-negative and Gram-positive bacterial strains (Supplementary Table S8) were cultured in Luria-Bertani (LB) or trypticase soy broth (TSB) agar plates, respectively, and incubated overnight at 37 °C unless specifically indicated. A single colony of the tested bacterial strains was inoculated into medium broth with shaking at 220 rpm for further experiments.
(§2) Minimal inhibitory concentrations: Antimicrobial susceptibility testing was performed by broth microdilution method for AMPs against Gram-positive and Gram-negative pathogens above mentioned, following the methods of document CLSI M100-ED34.[43] The MICs were defined as the lowest concentrations that inhibit visible growth of the tested bacteria. E. coli ATCC 25,922 and S. aureus ATCC 29,213 were served as quality controls.

K. pneumoniae 9-1 = test: microbe, parasite or virus in culture; type: cell-based; settings: Table 1, K. pneumoniae 9-1, broth microdilution
Experimental: as §1, §2

A. baumannii 7979 = test: microbe, parasite or virus in culture; type: cell-based; settings: Table 1, A. baumannii 7979, broth microdilution
Experimental: as §1, §2

P. aeruginosa PA14 = test: microbe, parasite or virus in culture; type: cell-based
Experimental: as §1, §2

P. aeruginosa PAO1 = test: microbe, parasite or virus in culture; type: cell-based; settings: Table 1, P. aeruginosa PAO1, broth microdilution
Experimental: as §1, §2

E. coli ATCC 25922 = test: microbe, parasite or virus in culture; type: cell-based
Experimental: as §1, §2

A. baumannii AB11 = test: microbe, parasite or virus in culture; type: cell-based
Experimental: as §1, §2

S. suis P1/7 = test: microbe, parasite or virus in culture; settings: Streptococcus suis, P1/7
Experimental: as §1
as §2, with “bacteria.” for “bacteria. E. coli ATCC 25,922 and S. aureus ATCC 29,213 were served as quality controls.”

S. aureus ATCC 29213 = test: microbe, parasite or virus in culture; type: cell-based; settings: Staphylococcus aureus, ATCC29213
E. faecalis JH2-2 = test: microbe, parasite or virus in culture; type: cell-based; settings: Enterococcus faecalis, JH22
Experimental: as §1, §2

S. pyogenes DL02 = test: microbe, parasite or virus in culture; type: cell-based; settings: Streptococcus pyogenes
Experimental: as §1, §2

S. aureus YZSA-24 = test: microbe, parasite or virus in culture; type: cell-based; settings: Staphylococcus aureus, YZSA24
Experimental: as §1, §2

S. aureus YZSA-21 = test: microbe, parasite or virus in culture; type: cell-based; settings: Staphylococcus aureus, YZSA21
Experimental: as §1, §2

S. aureus M147-2 = test: microbe, parasite or virus in culture; type: cell-based; settings: Staphylococcus aureus, M1472
Experimental: as §1, §2

S. suis SH0918 = test: microbe, parasite or virus in culture; type: cell-based; settings: Streptococcus suis
Experimental: as §1, §2

E. faecium MC38 = test: microbe, parasite or virus in culture; type: cell-based; settings: Enterococcus faecium
Experimental: as §1, §2

E. faecium HFY01 = test: microbe, parasite or virus in culture; type: cell-based; settings: Enterococcus faecium
Experimental: as §1, §2

S. agalactiae DL03 = test: microbe, parasite or virus in culture; type: cell-based; settings: Streptococcus agalactiae
Experimental: as §1, §2

E. faecalis J2 = test: microbe, parasite or virus in culture; type: cell-based; settings: Enterococcus faecalis
Experimental: as §1, §2

S. aureus M92-1 = test: microbe, parasite or virus in culture; type: cell-based; settings: Staphylococcus aureus, M921
Experimental: as §1, §2

S. aureus YZSA-15 = test: microbe, parasite or virus in culture; type: cell-based; settings: Staphylococcus aureus, YZSA15
Experimental: as §1, §2

E. faecalis SF23-1 = test: microbe, parasite or virus in culture; type: cell-based; settings: Enterococcus faecalis, SF231
Experimental: as §1, §2

E. faecalis ES01 = test: microbe, parasite or virus in culture; type: cell-based; settings: Enterococcus faecalis
Experimental: as §1, §2

E. faecium QF31 = test: microbe, parasite or virus in culture; type: cell-based; settings: Enterococcus faecium
Experimental: as §1, §2

[1] = Table 1, S. aureus ATCC 29213, broth microdilution, CLSI M100-ED34, read-out: MIC
[2] = Table 1, E. faecalis JH2-2, broth microdilution, read-out: MIC
[3] = Table 1, S. pyogenes DL02, ermB, broth microdilution, read-out: MIC
[4] = Table 1, S. aureus YZSA-24, ermC, mecA, broth microdilution, read-out: MIC
[5] = Table 1, S. aureus YZSA-21, ermC, broth microdilution, read-out: MIC
[6] = Table 1, S. aureus M147-2, ermB, tetL, cfr, broth microdilution, read-out: MIC
[7] = Table 1, S. suis SH0918, ermB, tetO, optrA, broth microdilution, read-out: MIC
[8] = Table 1, E. faecium MC38, ermB, optrA, broth microdilution, read-out: MIC
[9] = Table 1, E. faecium HFY01, broth microdilution, read-out: MIC
[10] = Table 1, S. agalactiae DL03, ermB, broth microdilution, read-out: MIC
[11] = Table 1, E. faecalis J2, ermB, optrA, broth microdilution, read-out: MIC
[12] = Table 1, S. aureus M92-1, ermB, tetL, optrA, broth microdilution, read-out: MIC
[13] = Table 1, S. aureus YZSA-15, ermC, vanB, broth microdilution, read-out: MIC
[14] = Table 1, E. faecalis SF23-1, ermB, tetL, cfr, broth microdilution, read-out: MIC
[15] = Table 1, E. faecalis ES01, ermB, vanB, broth microdilution, read-out: MIC
[16] = Table 1, E. faecium QF31, ermB, cfr, broth microdilution, read-out: MIC

Compound | MIC (S. suis P1/7) [µg/mL] | MIC (S. aureus ATCC 29213; [1]) [µg/mL] | MIC (E. faecalis JH2-2; [2]) [µg/mL] | MIC (S. pyogenes DL02; [3]) [µg/mL] | MIC (S. aureus YZSA-24; [4]) [µg/mL] | MIC (S. aureus YZSA-21; [5]) [µg/mL] | MIC (S. aureus M147-2; [6]) [µg/mL] | MIC (S. suis SH0918; [7]) [µg/mL] | MIC (E. faecium MC38; [8]) [µg/mL] | MIC (E. faecium HFY01; [9]) [µg/mL] | MIC (S. agalactiae DL03; [10]) [µg/mL] | MIC (E. faecalis J2; [11]) [µg/mL] | MIC (S. aureus M92-1; [12]) [µg/mL] | MIC (S. aureus YZSA-15; [13]) [µg/mL] | MIC (E. faecalis SF23-1; [14]) [µg/mL] | MIC (E. faecalis ES01; [15]) [µg/mL] | MIC (E. faecium QF31; [16]) [µg/mL] | further results
C[C@H]1COc2c(N3CCN(C)CC3)c(F)cc3c(=O)c(C(=O)O)cn1c23 [LVX, Levofloxacin] | – | – | – | – | – | – | – | – | – | – | – | – | – | – | – | – | – | MIC (S. enteritis S1; read-out: MIC): 0.5 µg/mL (≈ 1.38 µM); MIC (K. pneumoniae 9-1; Klebsiella pneumoniae, 91, read-out: MIC): > 64 µg/mL; MIC (A. baumannii 7979; Acinetobacter baumannii, read-out: MIC): > 64 µg/mL; MIC (P. aeruginosa PA14; Pseudomonas aeruginosa, PA14): 0.125 µg/mL (≈ 0.346 µM); MIC (P. aeruginosa PAO1; Pseudomonas aeruginosa, read-out: MIC): 0.5 µg/mL (≈ 1.38 µM); MIC (E. coli ATCC 25922; Escherichia coli, ATCC25922): 0.125 µg/mL (≈ 0.346 µM); MIC (A. baumannii AB11; Acinetobacter baumannii, AB11): 0.125 µg/mL (≈ 0.346 µM)
CC[C@H]1OC(=O)[C@H](C)[C@@H](O[C@H]2C[C@@](C)(OC)[C@@H](O)[C@H](C)O2)[C@H](C)[C@@H](O[C@@H]2O[C@H](C)C[C@H](N(C)C)[C@H]2O)[C@](C)(O)C[C@@H](C)C(=O)[C@H](C)[C@@H](O)[C@]1(C)O [ERY, Erythromycin] | 0.125 (≈ 0.17 µM) | 1 (≈ 1.36 µM) | 0.25 (≈ 0.341 µM) | > 64 | > 63 | > 64 | > 64 | > 64 | > 64 | 2 (≈ 2.73 µM) | > 64 | > 64 | > 64 | > 64 | > 64 | > 64 | > 64 | –
CC(=O)NC[C@H]1CN(c2ccc(N3CCOCC3)c(F)c2)C(=O)O1 [LZD, linezolid] | 0.125 (≈ 0.371 µM) | 1 (≈ 2.96 µM) | 0.5 (≈ 1.48 µM) | < 0.06 | 0.5 (≈ 1.48 µM) | 1 (≈ 2.96 µM) | 8 (≈ 23.7 µM) | 8 (≈ 23.7 µM) | 2 (≈ 5.93 µM) | 2 (≈ 5.93 µM) | 1 (≈ 2.96 µM) | 8 (≈ 23.7 µM) | 8 (≈ 23.7 µM) | 0.5 (≈ 1.48 µM) | 16 (≈ 47.4 µM) | 2 (≈ 5.93 µM) | 2 (≈ 5.93 µM) | –
CN[C@H](CC(C)C)C(=O)N[C@H]1C(=O)N[C@@H](CC(N)=O)C(=O)N[C@H]2C(=O)N[C@H]3C(=O)N[C@H](C(=O)N[C@H](C(=O)O)c4cc(O)cc(O)c4-c4cc3ccc4O)[C@H](O)c3ccc(c(Cl)c3)Oc3cc2cc(c3O[C@@H]2O[C@H](CO)[C@@H](O)[C@H](O)[C@H]2O[C@H]2C[C@](C)(N)[C@H](O)[C@H](C)O2)Oc2ccc(cc2Cl)[C@H]1O [VAN, vancomycin] | < 0.06 | – | – | – | – | – | – | – | – | – | – | – | – | – | – | – | – | MIC (S. aureus ATCC 29213): 1 µg/mL (≈ 0.69 µM); MIC (E. faecalis JH2-2): 2 µg/mL (≈ 1.38 µM); MIC (S. pyogenes DL02; DL02): < 0.06 µg/mL; MIC (S. aureus YZSA-24): < 0.06 µg/mL; MIC (S. aureus YZSA-21): 1 µg/mL (≈ 0.69 µM); MIC (S. aureus M147-2): 0.5 µg/mL (≈ 0.345 µM); MIC (S. suis SH0918; SH0918): < 0.06 µg/mL; MIC (E. faecium MC38; MC38): 2 µg/mL (≈ 1.38 µM); MIC (E. faecium HFY01; HFY01): 0.5 µg/mL (≈ 0.345 µM); MIC (S. agalactiae DL03; DL03): 0.125 µg/mL (≈ 0.0863 µM); MIC (E. faecalis J2; J2): 2 µg/mL (≈ 1.38 µM); MIC (S. aureus M92-1): 1 µg/mL (≈ 0.69 µM); MIC (S. aureus YZSA-15): 16 µg/mL (≈ 11 µM); MIC (E. faecalis SF23-1): 2 µg/mL (≈ 1.38 µM); MIC (E. faecalis ES01; ES01): 16 µg/mL (≈ 11 µM); MIC (E. faecium QF31; QF31): 2 µg/mL (≈ 1.38 µM)
O=C(O)c1cn(C2CC2)c2cc(N3CCNCC3)c(F)cc2c1=O [CIP, ciprofloxacin] | – | – | 0.5 (≈ 1.51 µM) | 1 (≈ 3.02 µM) | 4 (≈ 12.1 µM) | 0.5 (≈ 1.51 µM) | 32 (≈ 96.6 µM) | 16 (≈ 48.3 µM) | 8 (≈ 24.1 µM) | 1 (≈ 3.02 µM) | 16 (≈ 48.3 µM) | 8 (≈ 24.1 µM) | 16 (≈ 48.3 µM) | 0.25 (≈ 0.754 µM) | 16 (≈ 48.3 µM) | 2 (≈ 6.04 µM) | 2 (≈ 6.04 µM) | –
colistin [CST] | – | – | – | – | – | – | – | – | – | – | – | – | – | – | – | – | – | MIC (S. enteritis S1): 0.5 µg/mL; MIC (K. pneumoniae 9-1): 1 µg/mL; MIC (A. baumannii 7979): <0.06 µg/mL; MIC (P. aeruginosa PA14; Table 1, P. aeruginosa PA14, broth microdilution): <0.06 µg/mL; MIC (P. aeruginosa PAO1): 0.125 µg/mL; MIC (E. coli ATCC 25922; Table 1, E. coli ATCC 25922, broth microdilution): 1 µg/mL; MIC (A. baumannii AB11; Table 1, A. baumannii AB11, broth microdilution): 8 µg/mL
